From ChEMBL document CHEMBL5233201, “Progress in mechanistically novel treatments for schizophrenia” (RSC Med Chem, 2021)

Molecular target: High affinity cGMP-specific 3',5'-cyclic phosphodiesterase 9A (Homo sapiens, UniProt O76083)
Experiment: Inhibition of human PDE9A expressed in Escherichia coli DH10 by scintillation proximity assay

Sequence of High affinity cGMP-specific 3',5'-cyclic phosphodiesterase 9A (O76083 whole entry): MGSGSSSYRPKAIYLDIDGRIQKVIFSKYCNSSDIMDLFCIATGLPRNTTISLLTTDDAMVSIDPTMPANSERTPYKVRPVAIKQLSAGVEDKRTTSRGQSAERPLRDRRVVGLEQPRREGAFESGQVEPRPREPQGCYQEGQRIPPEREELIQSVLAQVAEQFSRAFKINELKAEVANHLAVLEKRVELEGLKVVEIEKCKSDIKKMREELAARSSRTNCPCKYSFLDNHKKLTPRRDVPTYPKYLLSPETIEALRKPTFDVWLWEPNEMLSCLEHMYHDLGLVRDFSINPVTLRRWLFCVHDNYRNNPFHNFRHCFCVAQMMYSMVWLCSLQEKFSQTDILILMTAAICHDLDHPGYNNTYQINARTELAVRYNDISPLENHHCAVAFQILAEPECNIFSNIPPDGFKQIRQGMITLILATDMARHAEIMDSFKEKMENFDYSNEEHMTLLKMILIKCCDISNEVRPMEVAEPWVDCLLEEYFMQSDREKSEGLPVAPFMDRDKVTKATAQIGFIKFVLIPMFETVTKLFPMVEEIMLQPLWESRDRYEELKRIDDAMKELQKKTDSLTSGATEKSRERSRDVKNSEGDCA

## O=c1[nH]c(Cc2ccccn2)nc2c1cnn2C1CCOCC1 [OSORESNONTRINE]
  IC50: 65 nM
